The results in this text go back to ChEMBL document CHEMBL1156326, “Novel N-substituted benzimidazole CXCR4 antagonists as potential anti-HIV agents” (Bioorg Med Chem Lett, 2010).

Series [1] can be described thus: Cytotoxicity against human HOS cells. Format: cell-based.
In series [2] the test system is Human immunodeficiency virus 1. In words: Antiviral activity against HIV1 3B infected in human HOS cells expressing human CXCR4/CCR5/CD4 and HIV-LTR-luciferase. Type of series: functional, organism-based. The settings on record: Human immunodeficiency virus 1, 3B.
The nature of series [3]: Clearance in dog at 1 mg/kg, iv. Format: ADME, organism-based, Canis lupus familiaris. On the set-up: dose 1 mg/kg, route intravenous. The settings on record: in vivo.
For series [4], the target named is Voltage-gated inwardly rectifying potassium channel KCNH2 (Homo sapiens, UniProt Q12809). The experiment in a line: Binding affinity to human ERG.
Series [5] is described as follows: Oral bioavailability in rat at 3 mg/kg. The settings on record: in vivo. Type of series: ADME, organism-based.
Series [6] can be described thus: Oral bioavailability in dog at 3 mg/kg. Format: ADME, organism-based, Canis lupus familiaris. As to conditions: in vivo; call rule not given here.
Series [7] is described as follows: Half life in dog at 1 mg/kg, iv. Type of series: ADME, organism-based, Canis lupus familiaris. More on the design: dose 1 mg/kg, route intravenous. As to conditions: in vivo.
In series [8] the test system is Human immunodeficiency virus 1. The experiment in a line: Antiviral activity against HIV1 3B infected in human HOS cells expressing human CXCR4/CCR5/CD4 and HIV-LTR-luciferase assessed as change in concentration at which 50 % efficacy is observed in presence of human serum albumin and alpha acid glycoprotein. Type of series: functional.
Series [9] in a line: Half life in rat at 1 mg/kg, iv. Format: ADME, organism-based. On the set-up: dose 1 mg/kg, route intravenous. The settings on record: in vivo.
The target of series [10] is C-X-C chemokine receptor type 4 (Homo sapiens, UniProt P61073). The experiment in a line: Inhibition of human CXCR4.
A short description of series [11]: Clearance in rat at 1 mg/kg, iv. Format: ADME, organism-based. More on the design: dose 1 mg/kg, route intravenous. The settings on record: in vivo.

C-X-C chemokine receptor type 4, sequence (P61073 whole entry): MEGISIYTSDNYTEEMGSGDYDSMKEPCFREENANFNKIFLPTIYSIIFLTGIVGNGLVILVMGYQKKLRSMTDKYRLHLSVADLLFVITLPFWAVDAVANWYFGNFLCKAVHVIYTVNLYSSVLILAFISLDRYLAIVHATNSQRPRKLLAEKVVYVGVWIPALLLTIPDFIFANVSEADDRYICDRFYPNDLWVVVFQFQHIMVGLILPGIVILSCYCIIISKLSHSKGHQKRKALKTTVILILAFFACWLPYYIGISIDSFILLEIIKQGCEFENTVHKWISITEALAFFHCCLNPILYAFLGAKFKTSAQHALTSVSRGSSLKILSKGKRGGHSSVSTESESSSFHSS
Voltage-gated inwardly rectifying potassium channel KCNH2, sequence (Q12809 whole entry): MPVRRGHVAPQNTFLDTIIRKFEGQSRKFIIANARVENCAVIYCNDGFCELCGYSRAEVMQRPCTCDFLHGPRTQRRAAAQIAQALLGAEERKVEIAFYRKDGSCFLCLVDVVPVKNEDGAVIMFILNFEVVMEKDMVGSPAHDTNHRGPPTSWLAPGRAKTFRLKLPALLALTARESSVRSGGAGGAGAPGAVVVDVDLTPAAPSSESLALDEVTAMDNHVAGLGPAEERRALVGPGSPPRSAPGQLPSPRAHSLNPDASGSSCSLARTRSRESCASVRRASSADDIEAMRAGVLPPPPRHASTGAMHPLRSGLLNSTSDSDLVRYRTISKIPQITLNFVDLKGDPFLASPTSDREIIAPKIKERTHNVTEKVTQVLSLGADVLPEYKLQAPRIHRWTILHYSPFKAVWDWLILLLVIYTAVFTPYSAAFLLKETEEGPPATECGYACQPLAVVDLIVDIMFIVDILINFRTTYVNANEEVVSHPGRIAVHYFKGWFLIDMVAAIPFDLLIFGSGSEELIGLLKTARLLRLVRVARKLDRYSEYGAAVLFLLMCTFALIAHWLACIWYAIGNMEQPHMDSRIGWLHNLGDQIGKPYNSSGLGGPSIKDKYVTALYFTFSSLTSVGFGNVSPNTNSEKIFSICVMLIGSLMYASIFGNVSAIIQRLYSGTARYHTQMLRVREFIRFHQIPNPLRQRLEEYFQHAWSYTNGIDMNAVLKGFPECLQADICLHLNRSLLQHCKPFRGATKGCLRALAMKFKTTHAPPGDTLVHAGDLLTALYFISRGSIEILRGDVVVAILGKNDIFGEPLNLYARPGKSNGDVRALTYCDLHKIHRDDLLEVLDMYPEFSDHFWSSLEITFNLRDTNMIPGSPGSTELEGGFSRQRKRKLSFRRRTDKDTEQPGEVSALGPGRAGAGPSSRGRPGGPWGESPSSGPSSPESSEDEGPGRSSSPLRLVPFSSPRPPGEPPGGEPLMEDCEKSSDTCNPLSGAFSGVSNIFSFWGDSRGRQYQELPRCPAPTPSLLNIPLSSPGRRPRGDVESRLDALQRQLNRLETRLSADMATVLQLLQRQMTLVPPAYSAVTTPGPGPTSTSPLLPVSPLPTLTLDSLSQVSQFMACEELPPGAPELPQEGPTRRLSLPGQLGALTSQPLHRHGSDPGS

As to `CC(C)N1CCC[C@H](Cn2c(CN(C)[C@H]3CCCc4cccnc43)nc3ccccc32)C1`, the CC50 (in general, the concentration at which the toxic effect on the cells reaches its halfway point) in series [1] was 2100 nM. Besides, the IC50 (commonly the concentration that inhibits the measured activity by half) stood at 2 nM in [2] and 4.5 nM in series [10]. The results for the clearance in series [3] and in [11] were 9.4 mL/min/kg and 8.5 mL/min/kg, respectively. In addition, the outcome in series [4] was Active. In addition, the bioavailability (commonly the share of a dose that reaches the circulation, judged against a reference dose that is usually intravenous) is 11% in [5] and 22% in [6]. The half-life (commonly the time in which the quantity being followed falls by half) is 11 h in [7] and 5.8 h in series [9]. In series [8], the “fold change (FC)” value came to 2.
On to `CN(Cc1nc2ccccc2n1C[C@H]1CCCN(CCO)C1)[C@H]1CCCc2cccnc21`, for which the CC50 in series [1] stood at 2500 nM. The same compound had a half-inhibitory concentration (IC50) in [2] of 12 nM. Further, the “fold change (FC)” value in [8] was 9.1.
In turn, `CN1CCC[C@H](Cn2c(CN(C)[C@H]3CCCc4cccnc43)nc3ccccc32)C1` displayed a CC50 in series [1] of 3600 nM. Further, in [2], half-maximal inhibition (IC50) was put at 6 nM. The “fold change (FC)” value in [8] turned out to be 10.
Turning to `CN1CCC[C@@H](Cn2c(CN(C)[C@H]3CCCc4cccnc43)nc3ccccc32)C1`, the CC50 in series [1] came out at 3500 nM. The compound also had an IC50 in series [2] of 21 nM.
In series [1], `CN(Cc1nc2ccccc2n1C[C@H]1CCCN(Cc2cccnc2)C1)[C@H]1CCCc2cccnc21` registered a half-maximal cytotoxic concentration (CC50) of 2500 nM. In series [2], the midpoint of inhibition, the IC50, lay at 33 nM. In [8], the “fold change (FC)” value amounted to 8.7.
As for `CN(Cc1nc2ccccc2n1C1CCNCC1)C1CCCc2cccnc21` (stereo not drawn), the CC50 in series [1] was determined as 13000 nM. For the same compound, half-maximal inhibition in series [2] (IC50) required 99 nM.
Consider `CN(Cc1nc2ccccc2n1CCCN)C1CCCc2cccnc21` (stereo not drawn), for which, in series [1], half-maximal cytotoxicity (CC50) was put at 9600 nM. Further, 47 nM corresponded to half-maximal inhibition in series [10] (IC50).
With `CN1CCC(n2c(CN(C)C3CCCc4cccnc43)nc3ccccc32)CC1` (stereo not drawn), the CC50 in series [1] stood at 16000 nM. Moreover, the IC50 in series [2] was 95 nM; in [10], 76 nM.
`CN(Cc1nc2ccccc2n1CC1CCCNC1)C1CCCc2cccnc21` (stereo not drawn) had a CC50 in [1] of 15000 nM. In [2], inhibition was half-maximal at 51 nM (IC50).
In series [1], `CN1CCCC(Cn2c(CN(C)C3CCCc4cccnc43)nc3ccccc32)C1` (stereo not drawn) displayed a CC50 of 3000 nM. Moreover, the IC50 in [2] was determined as 19 nM.
For `CN1CCC[C@H](Cn2c(CN(C)[C@@H]3CCCc4cccnc43)nc3ccccc32)C1`, in that order: 3600 nM and 210 nM.
`CN(Cc1nc2ccccc2n1C[C@H]1CCCNC1)[C@H]1CCCc2cccnc21` returned a CC50 in [1] of 3500 nM. In series [2], this compound displayed an IC50 of 8 nM. The “fold change (FC)” value in series [8] came to 1.2.
Regarding `CN(Cc1nc2ccccc2n1CC1CCNC1)C1CCCc2cccnc21` (stereo not drawn), it took 7700 nM to reach half-maximal cytotoxicity in series [1] (CC50). Besides, the IC50 in series [2] was found to be 24 nM.
The compound `CN(Cc1nc2ccccc2n1CCC1CCCCN1)C1CCCc2cccnc21` (stereo not drawn) registered a CC50 in series [1] of 8300 nM. The compound also yielded an IC50 in [2] of 64 nM.
For `CN1CCCCC1CCn1c(CN(C)C2CCCc3cccnc32)nc2ccccc21` (stereo not drawn), in that order: 4900 nM and 33 nM.
With `CN(Cc1nc2ccccc2n1CC1CNC1)C1CCCc2cccnc21` (stereo not drawn), the CC50 in [1] was 15000 nM. In addition, the IC50 in [2] stood at 84 nM.
On to `CN1CC(Cn2c(CN(C)C3CCCc4cccnc43)nc3ccccc32)C1` (stereo not drawn), for which the CC50 in [1] worked out at 14000 nM. In series [2], this compound showed an IC50 of 66 nM.
For `CN1CCC(Cn2c(CN(C)C3CCCc4cccnc43)nc3ccccc32)C1` (stereo not drawn), in that order: 15000 nM and 57 nM.
For `CC(C)CN1CCC[C@H](Cn2c(CN(C)[C@H]3CCCc4cccnc43)nc3ccccc32)C1`, the CC50 in series [1] is greater than 2000 nM. Besides, in [2], inhibition was half-maximal at 8.1 nM (IC50). Also, the “fold change (FC)” value in series [8] was 6.2.
`CN1CCC[C@@H](Cn2c(CN(C)[C@@H]3CCCc4cccnc43)nc3ccccc32)C1` showed a CC50 in series [1] of 2800 nM. Also, in series [2], the IC50 turned out to be 500 nM.
For `CC(C)CCN1CCC[C@H](Cn2c(CN(C)[C@H]3CCCc4cccnc43)nc3ccccc32)C1`, the CC50 in series [1] was 2300 nM. In series [2], this compound had an IC50 of 15 nM. The “fold change (FC)” value in [8] worked out at 5.1.
